{"source": "patent US20210048443A1", "about": "“METHOD FOR DIAGNOSING HAEMOSTASIS DISORDERS USING ACTIVATED CHARCOAL” (UNIVERSITÉ DE NAMUR ASBL, priority 2018, published 2021)", "key": {"Protein S activity": {"test_system": "Protein S activity", "test": "Protein S activity assay, interference of direct oral anticoagulants", "type": "biochemical", "details": "arrow grades; antigen-based assay unaffected, clot-based affected", "excerpt": "(§1) Coagulation tests or assays most affected by the presence of anticoagulants in the plasma sample will be the tests that involve the clotting factor to which the coagulation inhibitor is directed, leading to false-positive or false-negative results (Table 1)."}, "Antithrombin activity": {"test_system": "Antithrombin activity", "test": "Antithrombin activity assay, interference of direct oral anticoagulants", "type": "biochemical", "details": "arrow grades", "excerpt": "as §1"}, "PT/clotting factors": {"test_system": "PT/clotting factors", "test": "PT/clotting factors, interference of direct oral anticoagulants", "type": "biochemical", "details": "arrow grades, key not given; all factors affected", "excerpt": "as §1"}, "Lupus anticoagulant": {"test_system": "Lupus anticoagulant", "test": "Lupus anticoagulant test, interference of direct oral anticoagulants", "type": "biochemical", "details": "arrow grades; false positive due to high screen/confirmation assay ratios", "excerpt": "as §1"}, "Protein C activity": {"test_system": "Protein C activity", "test": "Protein C activity assay, interference of direct oral anticoagulants", "type": "biochemical", "details": "arrow grades; chromogenic and antigen-based assays unaffected, clot-based affected", "excerpt": "as §1"}, "platelet-poor plasma [1]": {"test_system": "platelet-poor plasma", "test": "activated Partial Thromboplastin Time (aPTT) assay on plasma with DOACs", "type": "biochemical", "details": "for Effect on aPTT of platelet-poor plasma: increasing concentrations of DOACs, no charcoal (FIG. 2a)", "procedure": "(§2) Standard tests for in vitro diagnosis of a haemostasis disorder, for example in hospital laboratories, are generally performed on plasma samples obtain from a patient. For the preparation of such plasma samples, blood components of a blood sample from a patient are typically separated by two centrifugation steps, both at 2500 g for 15 min (FIG. 1). The first centrifugation step will separate the blood in solid substances (e.g. red and white blood cells) (i.e. the lower phase) and blood plasma (i.e. upper phase). Subsequently, the blood plasma is collected and submitted to a second centrifugation step, which pelletizes the residual blood cells and/or platelets. The upper phase obtained by the second centrifugation step (i.e. platelet-poor plasma) can be used for haemostatic tests. However, the platelet-poor plasma obtained by standard methods will comprise direct anticoagulants (e.g. DOACs), if the patient is treated therewith, which may interfere with several clotting times tests (Table 1).\n(§3) A blood sample obtained from a subject was centrifuged at 2500 g during 15 min to separate the blood into solid substances (e.g. red and white blood cells) (i.e. lower phase) and blood plasma (i.e. upper phase).\nThe plasma obtained from the first (and only) centrifugation step was incubated with activated charcoal (10 mg/ml of plasma) for 5 minutes and the plasma was subsequently recovered from the activated charcoal by passing the plasma through a filter with 0.65 μm pores (FIG. 3). Passing the plasma through the filter was achieved by a short centrifugation. The filter with 0.65 μm pores allowed to efficiently remove the activated charcoal and residual blood cells and/or platelets, which have a larger size than 0.65 μm, from the plasma with a minimal interference with blood coagulation tests.\nPlasma was obtained by centrifuging once a blood sample obtained from a subject as described in Example 2. The plasma sample was incubated with different concentrations of activated charcoal (i.e. 5 mg/ml, 10 mg/ml or 15 mg/ml) for 5 minutes and the plasma was subsequently recovered from the activated charcoal by passing the plasma through a filter with 0.65 μm pores and activated charcoal by a short centrifugation."}, "APCR": {"test_system": "APCR", "test": "APCR (activated protein C resistance) assay, interference of direct oral anticoagulants", "type": "biochemical", "details": "for Interference with APCR: arrow grades, aPTT-based assays are mostly affected", "excerpt": "as §1"}, "aPTT/clotting factors": {"test_system": "aPTT/clotting factors", "test": "aPTT/clotting factors, interference of direct oral anticoagulants", "type": "biochemical", "details": "arrow grades, key not given; all factors affected", "excerpt": "as §1"}, "platelet-poor plasma [2]": {"test_system": "platelet-poor plasma", "test": "Prothrombin Time (PT) assay on plasma with DOACs", "type": "biochemical", "details": "for Effect on PT of platelet-poor plasma: increasing concentrations of DOACs, no charcoal (FIG. 2b)", "procedure": "as §2, with “For” for “Standard tests for in vitro diagnosis of a haemostasis disorder, for example in hospital laboratories, are generally performed on plasma samples obtain from a patient. For”\nas §3\nThe plasma obtained from the first (and only) centrifugation step was incubated with activated charcoal (10 mg/ml of plasma) for 5 minutes and the plasma was subsequently recovered from the activated charcoal by passing the plasma through a filter with 0.65 μm pores (FIG. 3). Passing the plasma through the filter was achieved by a short centrifugation.\nThe plasma sample was incubated with different concentrations of activated charcoal (i.e. 5 mg/ml, 10 mg/ml or 15 mg/ml) for 5 minutes and the plasma was subsequently recovered from the activated charcoal by passing the plasma through a filter with 0.65 μm pores and activated charcoal by a short centrifugation."}, "patient's plasma": {"test_system": "patient's plasma", "test": "LA diagnostic assays (PTT LA, Staclot LA, DRVVT, DRVVT confirm) on patient's plasma", "type": "biochemical", "details": "platelet-poor plasma of patient treated with rivaroxaban (339 ng per ml), DRVVT confirm (FIG. 6)", "procedure": "The efficacy of the method as disclosed herein was assessed in a clinical situation. […] For LA diagnosis, several in vitro diagnosis assays were performed on the patient's plasma, including Partial Thromboplastin Time-Lupus anticoagulant Screen (PTT LA), PTT LA confirm (Staclot LA), Dilute Russel Viper Venom Time screen (DRVVT) and DRVVT confirm."}, "[3]": {"details": "human, in vivo"}}, "data": [{"smiles": "COc1ccc(-n2nc(C(N)=O)c3c2C(=O)N(c2ccc(N4CCCCC4=O)cc2)CC3)cc1", "note": "[Apixaban, 1-(4-methoxyphenyl)-7-oxo-6-[4-(2-oxopiperidin-1-yl)phenyl]-4,5-dihydropyrazolo[3,4-c]pyridine-3-carboxamide]", "values": [{"measurement": "Interference with Protein S activity", "setting": "Protein S activity", "value": "—/↑"}, {"measurement": "Interference with Antithrombin activity", "setting": "Antithrombin activity", "value": "—/↑"}, {"measurement": "Interference with PT/clotting factors", "setting": "PT/clotting factors", "value": "↓/↓↓"}, {"measurement": "Interference with Lupus anticoagulant", "setting": "Lupus anticoagulant", "value": "—/↑"}, {"measurement": "Interference with Protein C activity", "setting": "Protein C activity", "value": "—/↑"}, {"measurement": "Effect on aPTT of platelet-poor plasma", "setting": "platelet-poor plasma [1]", "value": "prolonged"}, {"measurement": "Interference with APCR", "setting": "APCR", "value": "↑"}, {"measurement": "Interference with aPTT/clotting factors", "setting": "aPTT/clotting factors", "value": "↓/↓↓"}, {"measurement": "Effect on PT of platelet-poor plasma", "setting": "platelet-poor plasma [2]", "value": "prolonged"}]}, {"smiles": "COc1ccc(NC(=O)c2ccc(C(=N)N(C)C)cc2)c(C(=O)Nc2ccc(Cl)cn2)c1", "note": "[Betrixaban]", "values": [{"measurement": "Interference with PT/clotting factors", "setting": "PT/clotting factors", "value": "↓↓"}, {"measurement": "Effect on aPTT of platelet-poor plasma", "setting": "platelet-poor plasma [1]", "value": "prolonged"}, {"measurement": "Interference with aPTT/clotting factors", "setting": "aPTT/clotting factors", "value": "↓↓"}, {"measurement": "Effect on PT of platelet-poor plasma", "setting": "platelet-poor plasma [2]", "value": "prolonged"}]}, {"smiles": "CN1CCc2nc(C(=O)N[C@@H]3C[C@@H](C(=O)N(C)C)CC[C@@H]3NC(=O)C(=O)Nc3ccc(Cl)cn3)sc2C1", "note": "[Edoxaban, N′-(5-chloropyridin-2-yl)-N-[(1S,2R,4S)-4-(dimethylcarbamoyl)-2-[(5-methyl-6,7-dihydro-4H-[1,3]thiazolo[5,4-c]pyridine-2-carbonyl)amino]cyclohexyl]oxamide]", "values": [{"measurement": "Interference with Protein S activity", "setting": "Protein S activity", "value": "↑"}, {"measurement": "Interference with Antithrombin activity", "setting": "Antithrombin activity", "value": "—/↑"}, {"measurement": "Interference with PT/clotting factors", "setting": "PT/clotting factors", "value": "↓↓"}, {"measurement": "Interference with Lupus anticoagulant", "setting": "Lupus anticoagulant", "value": "↑/↑↑"}, {"measurement": "Effect on aPTT of platelet-poor plasma", "setting": "platelet-poor plasma [1]", "value": "prolonged"}, {"measurement": "Interference with APCR", "setting": "APCR", "value": "↑"}, {"measurement": "Interference with aPTT/clotting factors", "setting": "aPTT/clotting factors", "value": "↓/↓↓"}]}, {"smiles": "O=C(NC[C@H]1CN(c2ccc(N3CCOCC3=O)cc2)C(=O)O1)c1ccc(Cl)s1", "note": "[Rivaroxaban, 5-Chloro-N-({(5S)-2-oxo-3-[4-(3-oxo-4-morpholinyl)phenyl]-1,3-oxazolidin-5-yl}methyl)-2-thiophenecarboxamide]", "values": [{"measurement": "Interference with Protein S activity", "setting": "Protein S activity", "value": "—/↑"}, {"measurement": "Interference with Antithrombin activity", "setting": "Antithrombin activity", "value": "—/↑"}, {"measurement": "Interference with PT/clotting factors", "setting": "PT/clotting factors", "value": "↓↓/↓↓↓"}, {"measurement": "Interference with Lupus anticoagulant", "setting": "Lupus anticoagulant", "value": "↑/↑↑"}, {"measurement": "Clotting time in LA diagnostic assays, untreated plasma", "setting": "patient's plasma", "value": "prolongs the clotting time"}, {"measurement": "Interference with Protein C activity", "setting": "Protein C activity", "value": "—/↑"}, {"measurement": "Effect of Rivaroxaban on aPTT after activated charcoal treatment", "setting": "platelet-poor plasma [1]; activated charcoal 5, 10 or 15 mg/ml, 5 minutes, 0.65 μm filter, Rivaroxaban up to 1000 ng/ml (FIG. 5a)", "value": "completely removed"}, {"measurement": "Effect on aPTT of platelet-poor plasma", "setting": "platelet-poor plasma [1]", "value": "prolonged"}, {"measurement": "rivaroxaban per ml of plasma in patient plasma sample", "setting": "[3]", "value": 339, "unit": "ng per ml"}, {"measurement": "Interference with Pefakit APCR Factor V Leiden", "setting": "APCR; Pefakit APCR Factor V Leiden kit", "value": "No interference"}, {"measurement": "Interference with APCR", "setting": "APCR", "value": "↑"}, {"measurement": "Interference with aPTT/clotting factors", "setting": "aPTT/clotting factors", "value": "↓↓"}, {"measurement": "Effect of Rivaroxaban on PT after activated charcoal treatment", "setting": "platelet-poor plasma [2]; activated charcoal 5, 10 or 15 mg/ml, 5 minutes, 0.65 μm filter, Rivaroxaban up to 1000 ng/ml (FIG. 5b)", "value": "completely removed"}, {"measurement": "Effect on PT of platelet-poor plasma", "setting": "platelet-poor plasma [2]", "value": "prolonged"}]}]}
